As usually defined, the IC50 is the concentration at which inhibition is half-maximal. A low value points to greater potency in that assay.

One experiment has as its target T1, TNKS1 (Homo sapiens, UniProt O95271).
T1 sequence (O95271 1-1327): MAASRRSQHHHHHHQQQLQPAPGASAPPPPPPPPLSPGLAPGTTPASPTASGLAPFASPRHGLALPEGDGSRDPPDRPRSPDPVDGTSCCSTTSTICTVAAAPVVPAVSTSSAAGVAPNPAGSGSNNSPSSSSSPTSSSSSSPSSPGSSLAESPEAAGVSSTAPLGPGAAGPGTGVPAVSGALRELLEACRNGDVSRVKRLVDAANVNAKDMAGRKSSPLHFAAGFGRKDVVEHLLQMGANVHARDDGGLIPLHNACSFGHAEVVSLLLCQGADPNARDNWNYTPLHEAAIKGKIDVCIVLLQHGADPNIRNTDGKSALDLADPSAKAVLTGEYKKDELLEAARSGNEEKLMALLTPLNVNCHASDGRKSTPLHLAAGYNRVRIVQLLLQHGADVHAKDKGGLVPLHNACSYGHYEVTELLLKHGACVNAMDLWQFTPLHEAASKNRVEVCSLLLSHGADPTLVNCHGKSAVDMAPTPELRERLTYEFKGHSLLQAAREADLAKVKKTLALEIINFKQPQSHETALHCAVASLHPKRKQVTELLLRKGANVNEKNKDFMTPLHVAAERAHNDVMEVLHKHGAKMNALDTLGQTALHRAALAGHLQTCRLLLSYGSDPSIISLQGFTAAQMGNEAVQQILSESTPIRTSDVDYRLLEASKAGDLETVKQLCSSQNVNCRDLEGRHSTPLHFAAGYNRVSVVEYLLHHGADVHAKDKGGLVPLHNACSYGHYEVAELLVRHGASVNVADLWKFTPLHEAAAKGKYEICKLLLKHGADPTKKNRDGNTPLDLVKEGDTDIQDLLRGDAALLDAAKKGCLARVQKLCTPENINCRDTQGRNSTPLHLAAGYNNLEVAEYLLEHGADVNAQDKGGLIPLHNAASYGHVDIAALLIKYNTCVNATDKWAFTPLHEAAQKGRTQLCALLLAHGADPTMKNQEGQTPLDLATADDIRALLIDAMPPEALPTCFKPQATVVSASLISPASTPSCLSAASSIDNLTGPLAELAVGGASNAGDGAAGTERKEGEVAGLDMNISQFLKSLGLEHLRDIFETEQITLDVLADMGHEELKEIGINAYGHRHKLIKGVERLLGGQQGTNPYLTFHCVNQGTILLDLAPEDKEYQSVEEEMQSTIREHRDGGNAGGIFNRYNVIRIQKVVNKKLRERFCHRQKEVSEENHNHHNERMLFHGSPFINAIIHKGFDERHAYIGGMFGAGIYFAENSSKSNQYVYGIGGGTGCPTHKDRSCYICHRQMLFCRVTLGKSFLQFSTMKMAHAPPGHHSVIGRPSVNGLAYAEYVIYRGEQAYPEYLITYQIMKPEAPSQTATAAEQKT
Briefly: Modified TNKS1 Assay 2 (auto-parsylation, [3H]-NAD+ SPA). As to conditions: 6 nM TNKS1, 96 well. The class given is biochemical.

Experiment [1] relates to wildtype Wnt signaling cascade. Briefly: HEK293 TOP Assay (Super TopFlash luciferase reporter, Wnt-3a stimulated). The class given is cell-based. In a few lines:
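HEK293 cells stably carrying Super TopFlash (TOP) or FOP reporter, stimulated with recombinant human Wnt-3a (2500–5 ng/ml, two-fold steps). Both lines incubated in parallel with compound from 50 μM to 15 nM (3.16-fold) in CAFTY buffer pH 7.4 with 2 mM Ca2+ and 0.01% BSA; selectivity judged TOP vs FOP.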
(In general: In a reporter assay the amount or activity of a reporter protein is the signal.)

The mark [2] stands for this setting: Homo sapiens, HEK293, 16 h, HEK293 TOP reporter cell line, Wnt-3a at EC50, 16 hours incubation, compound dilution series 50 μM to 15 nM.
[3] abbreviates: Homo sapiens, HEK293, 16 h, HEK293 TOP reporter cells, Wnt3a at EC50, 16 hours, luciferase.

On to `CS(=O)(=O)c1ccc(C(=O)Nc2ccc(NC(=O)c3[nH]cnc3C(=O)NCCN3CCCCC3)cc2)c(Cl)c1` [Example 53, N^5-(4-{[2-chloro-4-(methylsulfonyl)benzoyl]amino}phenyl)-N^4-[2-(piperidin-1-yl)ethyl]-1H-imidazole-4,5-dicarboxamide], for which the 50% inhibitory concentration (IC50) came out at 20 nM against TNKS1 and 40 nM in experiment [1] (setting [2]).
In the same order, the values of `CC(C)N(CCNC(=O)c1nc[nH]c1C(=O)Nc1ccc(NC(=O)c2ccc(F)cc2Cl)cc1)C(C)C` [Example 389, N^5-{4-[(2-chloro-4-fluorobenzoyl)amino]phenyl}-N^4-{2-[di(propan-2-yl)amino]ethyl}-1H-imidazole-4,5-dicarboxamide] are 150 nM and 750 nM.
As for `CN1CCCC(CNC(=O)c2[nH]cnc2C(=O)Nc2ccc(NC(=O)c3ccc(F)cc3Cl)cc2)C1` (centres unmarked) [Example 298, N^4-{4-[(2-chloro-4-fluorobenzoyl)amino]phenyl}-N^5-[(1-methylpiperidin-3-yl)methyl]-1H-imidazole-4,5-dicarboxamide], the IC50 at TNKS1 is 40 nM; in experiment [1] (setting [2]), 300 nM.
In the case of `CNC(=O)c1nc[nH]c1C(=O)Nc1ccc(NC(=O)c2ccccc2)cc1` [Example 21, N^5-[4-(benzoylamino)phenyl]-N^4-methyl-1H-imidazole-4,5-dicarboxamide], the results for the IC50 (on TNKS1; in experiment [1] (setting [2]); in experiment [1] (setting [3])) were > 10000 nM, 12000 nM and 12000 nM, respectively.
As to `O=C(Nc1ccc(NC(=O)c2nc[nH]c2C(=O)NCCN2CCCCC2)cc1OC(F)(F)F)c1ccc(F)cc1Cl` [Example 293, N^4-{4-[(2-chloro-4-fluorobenzoyl)amino]-3-(trifluoromethoxy)phenyl}-N^5-[2-(piperidin-1-yl)ethyl]-1H-imidazole-4,5-dicarboxamide], the IC50 against TNKS1 was found to be 80 nM; in experiment [1] (setting [2]), 570 nM.
For `CNC(=O)c1nc[nH]c1C(=O)Nc1ccc(NC(=O)c2cncc(C)c2)cc1` [Example 366, N^4-methyl-N^5-(4-{[(5-methylpyridin-3-yl)carbonyl]amino}phenyl)-1H-imidazole-4,5-dicarboxamide], in that order: > 10000 nM and 50000 nM.
As for `CCc1ccccc1C(=O)Nc1ccc(NC(=O)c2[nH]cnc2C(=O)NC)cc1` [Example 39, N^5-{4-[(2-ethylbenzoyl)amino]phenyl}-N^4-methyl-1H-imidazole-4,5-dicarboxamide], the half-inhibitory concentration (IC50) against TNKS1 is 2700 nM; in experiment [1] (setting [2]) it was 1700 nM; in experiment [1] (setting [3]) it was 1700 nM.
As for `CC(CN1CCOCC1)NC(=O)c1[nH]cnc1C(=O)Nc1ccc(NC(=O)c2ccc(F)cc2Cl)cc1` (single isomer, unassigned; enantiomer 2) [Example 270, N^4-{4-[(2-chloro-4-fluorobenzoyl)amino]phenyl}-N^5-[1-(morpholin-4-yl)propan-2-yl]-1H-imidazole-4,5-dicarboxamide (enantiomer 2)], the half-inhibitory concentration (IC50) at TNKS1 amounted to 4 nM; in experiment [1] (HEK293 TOP reporter cell line, Wnt-3a at EC50, 16 hours incubation, compound dilution series 50 μM to 15 nM), 40 nM.
In the case of `CCNC(=O)c1nc[nH]c1C(=O)Nc1ccc(NC(=O)c2cnccc2Cl)cc1` [Example 263, N^5-(4-{[(4-chloropyridin-3-yl)carbonyl]amino}phenyl)-N^4-ethyl-1H-imidazole-4,5-dicarboxamide], the IC50 on TNKS1 is 300 nM; in experiment [1] (setting [2]), 360 nM.
With `CCNC(=O)c1nc[nH]c1C(=O)Nc1ccc(NC(=O)c2cc(OC)ccc2Cl)cc1` [Example 264, N^5-{4-[(2-chloro-5-methoxybenzoyl)amino]phenyl}-N^4-ethyl-1H-imidazole-4,5-dicarboxamide], the IC50 on TNKS1 worked out at 90 nM; in experiment [1] (setting [2]), 1600 nM.
In the same order, the values of `CNC(=O)c1nc[nH]c1C(=O)Nc1ccc(NC(=O)c2ccon2)cc1` [Example 376, N^4-methyl-N^5-{4-[(1,2-oxazol-3-ylcarbonyl)amino]phenyl}-1H-imidazole-4,5-dicarboxamide] are > 10000 nM and 50000 nM.
In the same order, the values of `O=C(Nc1ccc(NC(=O)c2[nH]cnc2C(=O)NCCN2CCCCC2)cc1)c1ccc(F)cc1I` [Example 62, N^5-{4-[(4-fluoro-2-iodobenzoyl)amino]phenyl}-N^4-[2-(piperidin-1-yl)ethyl]-1H-imidazole-4,5-dicarboxamide] are 840 nM and 10 nM.

For the origin of these results see US9884063B2, “Amido-substituted azole compounds” (Bayer Pharma Aktiengesellschaft, priority 2014, dated 2018).
